Common to all, as to assay type: cell-based
The target in assay [1] is T1, Peroxisome proliferator-activated receptor alpha (Homo sapiens) (UniProt Q07869).
T1 sequence (whole entry): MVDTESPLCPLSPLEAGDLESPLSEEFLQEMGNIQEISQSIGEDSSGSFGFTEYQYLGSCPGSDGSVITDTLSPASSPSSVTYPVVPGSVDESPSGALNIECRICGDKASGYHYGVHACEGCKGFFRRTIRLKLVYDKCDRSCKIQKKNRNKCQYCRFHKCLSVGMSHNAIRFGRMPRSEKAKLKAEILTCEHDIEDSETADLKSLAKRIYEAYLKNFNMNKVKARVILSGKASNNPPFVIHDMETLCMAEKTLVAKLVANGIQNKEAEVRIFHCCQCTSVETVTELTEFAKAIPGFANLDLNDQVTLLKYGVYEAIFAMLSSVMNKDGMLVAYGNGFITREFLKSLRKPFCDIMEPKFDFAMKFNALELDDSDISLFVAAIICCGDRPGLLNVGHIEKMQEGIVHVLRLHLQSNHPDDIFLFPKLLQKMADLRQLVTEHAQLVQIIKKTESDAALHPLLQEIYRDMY
In words: Transactivation of GAL4-fused human PPARalpha expressed in COS7 cells assessed as efficacy at 10 uM incubated for 24 hrs by luciferase reporter gene assay relative to WY-14643. On the technique in general: In a reporter assay the amount or activity of a reporter protein is the signal.

Assay [2] concerns the target T2, Peroxisome proliferator-activated receptor gamma (Homo sapiens) (UniProt P37231).
T2 sequence (whole entry): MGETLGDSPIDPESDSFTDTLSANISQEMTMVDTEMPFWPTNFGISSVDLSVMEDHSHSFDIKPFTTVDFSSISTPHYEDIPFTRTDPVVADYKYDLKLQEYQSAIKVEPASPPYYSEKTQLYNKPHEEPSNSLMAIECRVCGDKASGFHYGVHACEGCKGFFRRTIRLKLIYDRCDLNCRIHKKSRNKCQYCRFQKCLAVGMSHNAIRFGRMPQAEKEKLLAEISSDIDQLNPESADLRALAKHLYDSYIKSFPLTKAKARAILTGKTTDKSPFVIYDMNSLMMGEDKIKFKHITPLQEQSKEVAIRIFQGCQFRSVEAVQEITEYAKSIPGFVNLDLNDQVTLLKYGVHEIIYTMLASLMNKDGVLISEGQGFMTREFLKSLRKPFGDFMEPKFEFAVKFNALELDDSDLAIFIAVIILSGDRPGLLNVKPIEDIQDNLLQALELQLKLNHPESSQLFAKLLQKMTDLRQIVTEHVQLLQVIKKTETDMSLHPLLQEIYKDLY
Briefly: Transactivation of GAL4-fused human PPARgamma expressed in COS7 cells assessed as efficacy at 10 uM incubated for 24 hrs by luciferase reporter gene assay relative to rosiglitazone.

Assay [3] concerns the target T1, Peroxisome proliferator-activated receptor alpha (Homo sapiens). In words: Agonist activity at GAL4-fused human PPARalpha expressed in COS7 cells incubated for 24 hrs by luciferase reporter gene assay.
The target of assay [4] is T2, Peroxisome proliferator-activated receptor gamma (Homo sapiens). In words: Agonist activity at GAL4-fused human PPARgamma expressed in COS7 cells incubated for 24 hrs by luciferase reporter gene assay.

Active and inactive are the calls of the source. The rule behind the calls is not given here.

`CC(O)CCC1(C)CC(=O)c2cc(O)ccc2O1` (centres undefined): the Efficacy in assay [1] is 23%. Further, the Efficacy entry in assay [2] was “inactive”. In addition, the result in assay [3] was Active.
As to `Cc1cccc(Nc2cc(Cl)nc(SCC(=O)O)n2)c1C`, the Efficacy result in assay [2] is “inactive”.
On to `CCOC(=O)CCC1(C)CC(=O)c2cc(O)ccc2O1` (centres undefined), for which, in assay [1], the Efficacy turned out to be 16%. For the same molecule, the Efficacy result in assay [2] is “inactive”. Further, the result in assay [3] was Active.
Regarding `C=C(C)CCC1(C)CCc2cc(O)ccc2O1` (centres undefined), the Efficacy in assay [1] amounted to 35%. Also, the Efficacy entry in assay [2] was “inactive”. In addition, the outcome in assay [3] was Active.
Turning to `CC1(CCC(=O)O)CCc2cc(O)ccc2O1` (centres undefined), the Efficacy in assay [1] came to 21%. Further, in assay [2], the Efficacy entry is “inactive”. Moreover, the result in assay [3] was Active.
On the same counts, the results for `CC(=O)Oc1ccc2c(c1)C(=O)CC(C)(CCC(C)OC(C)=O)O2` (centres undefined) are 40%, “inactive” and “Active”.
`CCCCCC1(C)CC(O)c2cc(O)ccc2O1` (centres undefined): the result in assay [4] and in assay [3] was inactive.
Regarding `CC(C)(O)CCC1(C)CC(=O)c2cc(O)ccc2O1` (centres undefined), the Efficacy in assay [1] amounted to 23%. In addition, in assay [2], the Efficacy result is “inactive”. For the same molecule, in assay [3], the outcome was Active.
As for `CCCCCC1(C)CC(=O)c2c(ccc(O)c2Cl)O1` (centres undefined), the Efficacy result in assay [1] was “inactive”. Further, the Efficacy in assay [2] was determined as 30%. In assay [4], the result was Active.
In the case of `COC(=O)CCC1(C)CCc2cc(O)ccc2O1` (centres undefined), in assay [1], the Efficacy amounted to 33%. For the same molecule, in assay [2], the Efficacy entry is “inactive”. Moreover, the result in assay [3] was Active.
Regarding `CC(C)=CCCC1(C)CC(O)c2cc(O)ccc2O1` (centres undefined), the result in assay [4] and in assay [3] was inactive.
